In ChEMBL document CHEMBL5154938, “A Small-Molecule Oral Agonist of the Human Glucagon-like Peptide-1 Receptor” (J Med Chem, 2022):
Activity calls are given as the source filed them. The calls are words filed in the database; no cut-off is given here.

Experiments:
[1] = biological target: T1, Glucagon-like peptide 1 receptor (Homo sapiens, UniProt P43220); experiment: Agonist activity at FAP-tagged human GLP-1R expressed in HEK293 cells assessed as receptor internalization measured after 30 mins by nuclear staining based confocal microscopic analysis; type: functional, cell-based; details: filed as agonist
[2] = AUC(0 to infinity) in cynomologus monkey at 5 mg/kg, po measured upto 24 hrs by LC-MS/MS analysis; type: ADME, organism-based, Macaca fascicularis; set-up: time < 24 hrs, dose 5 mg/kg, route po; details: cynomolgus monkey, in vivo
[3] = Cmax in Wistar Han rat at 100 mg/kg, po measured upto 24 hrs by LC-MS/MS analysis; type: ADME, organism-based; set-up: time < 24 hrs, dose 100 mg/kg, route po; details: in vivo
[4] = system: Macaca fascicularis; experiment: Induction of insulin secretion in cynomologus monkey assessed as glucose disappearance at 1.8 mg, iv dosed once daily by IVGTT assay; type: functional, organism-based
[5] = Oral bioavailability in Wistar Han rat at 100 mg/kg measured upto 24 hrs by LC-MS/MS analysis; type: ADME, organism-based; details: in vivo
[6] = Cmax in cynomologus monkey at 100 mg/kg, po measured upto 24 hrs by LC-MS/MS analysis; type: ADME, organism-based, Macaca fascicularis; set-up: time < 24 hrs, dose 100 mg/kg, route po; details: cynomolgus monkey, in vivo
[7] = system: Macaca fascicularis; experiment: Induction of insulin secretion in cynomologus monkey assessed as induction of glucose-induced insulin secretion at 1.8 mg, iv dosed once daily by IVGTT; type: functional, organism-based; details: DDE = dose-dependent effect
[8] = biological target: T1, Glucagon-like peptide 1 receptor; experiment: Agonist activity at human GLP-1R expressed in CHO-K1 cells assessed as cAMP accumulation by measuring maximum efficacy at 20 uM incubated for 30 mins in presence of BETP by BETP sensitized time-resolved fluorescence assay relative to control; type: functional, cell-based; details: filed as agonist
[9] = AUC (0 to infinity) in Wistar Han rat at 100 mg/kg, po measured upto 24 hrs by LC-MS/MS analysis; type: ADME, organism-based; set-up: dose 100 mg/kg, time < 24 hrs, route po; details: in vivo
[10] = biological target: Voltage-gated inwardly rectifying potassium channel KCNH2 (Homo sapiens, UniProt Q12809); experiment: Inhibition of hERG ion channel by patch-clamp method; type: toxicity
[11] = AUC(0 to infinity) in cynomologus monkey at 100 mg/kg, po measured upto 24 hrs by LC-MS/MS analysis; type: ADME, organism-based, Macaca fascicularis; set-up: dose 100 mg/kg, time < 24 hrs, route po; details: cynomolgus monkey, in vivo
[12] = Cmax in Wistar Han rat at 5 mg/kg, po measured upto 24 hrs by LC-MS/MS analysis; type: ADME, organism-based; set-up: dose 5 mg/kg, time < 24 hrs, route po; details: in vivo
[13] = in vitro; details: human, hepatocytes
[14] = Activation of rabbit GLP-1R expressed in CHO cells assessed as increase in cAMP accumulation; type: cell-based; details: Oryctolagus cuniculus
[15] = Oral bioavailability in cynomologus monkey at 5 mg/kg measured upto 24 hrs by LC-MS/MS analysis; type: ADME, organism-based, Macaca fascicularis; details: cynomolgus monkey, in vivo
[16] = AUC (0 to infinity) in Wistar Han rat at 5 mg/kg, po measured upto 24 hrs by LC-MS/MS analysis; type: ADME, organism-based; set-up: dose 5 mg/kg, time < 24 hrs, route po; details: in vivo
[17] = system: Cynomolgus monkey; experiment: Reduction in food intake in cynomologus monkey at 2.9 mg/kg, po administered once daily for 2 days relative to control; type: functional, organism-based; details: Macaca fascicularis, time 2.0 day
[18] = AUC (0 to infinity) in Wistar Han rat at 1 mg/kg, iv measured upto 24 hrs by LC-MS/MS analysis; type: ADME, organism-based; set-up: time < 24 hrs, dose 1 mg/kg, route iv; details: in vivo
[19] = Volume of distribution at steady state in Wistar Han rat at 1 mg/kg, iv measured upto 24 hrs by LC-MS/MS analysis; type: ADME, organism-based; details: in vivo
[20] = Oral bioavailability in Wistar Han rat at 5 mg/kg measured upto 24 hrs by LC-MS/MS analysis; type: ADME, organism-based; details: in vivo
[21] = Oral bioavailability in cynomologus monkey at 100 mg/kg measured upto 24 hrs by LC-MS/MS analysis; type: ADME, organism-based, Macaca fascicularis; details: cynomolgus monkey, in vivo
[22] = system: CHO; experiment: Activation of mouse GLP-1R S33W mutant expressed in CHO cells assessed as increase in cAMP accumulation; type: cell-based; details: filed as activator
[23] = Cmax in cynomologus monkey at 5 mg/kg, po measured upto 24 hrs by LC-MS/MS analysis; type: ADME, organism-based, Macaca fascicularis; set-up: time < 24 hrs, dose 5 mg/kg, route po; details: cynomolgus monkey, in vivo
[24] = Metabolic stability in human liver microsomes assessed as intrinsic clearance in the presence of NADPH by HPLC-MS/MS analysis; type: ADME, Microsome
[25] = AUC(0 to infinity) in cynomologus monkey at 1 mg/kg, iv measured upto 24 hrs by LC-MS/MS analysis; type: ADME, organism-based, Macaca fascicularis; set-up: dose 1 mg/kg, time < 24 hrs, route iv; details: cynomolgus monkey, in vivo
[26] = Lipophilicity, logD of compound at pH 7.4 by shake-flash method; type: physicochemical; details: buffer
[27] = Volume of distribution at steady state in cynomologus monkey at 1 mg/kg, iv measured upto 24 hrs by LC-MS/MS analysis; type: ADME, organism-based, Macaca fascicularis; details: cynomolgus monkey, in vivo
[28] = biological target: T1, Glucagon-like peptide 1 receptor
[29] = biological target: T1, Glucagon-like peptide 1 receptor; remark: listed apart in the source
[30] = biological target: T1, Glucagon-like peptide 1 receptor; experiment: Agonist activity at human GLP-1R expressed in PathHunter CHO-K1 GLP1R beta-arrestin-2 cell assessed as induction of beta-arrestin 2 recruitment incubated for 90 mins in presence of BETP by PathHunter assay; type: functional, cell-based
[31] = biological target: T1, Glucagon-like peptide 1 receptor; remark: listed apart in the source
[32] = Lipophilicity, logD of compound at pH 7.4 by RP-HPLC analysis; type: physicochemical; details: buffer
[33] = biological target: T1, Glucagon-like peptide 1 receptor; experiment: Agonist activity at human GLP-1R expressed in PathHunter CHO-K1 GLP1R beta-arrestin-2 cells assessed as induction of beta-arrestin 2 recruitment by measuring maximum efficacy incubated for 90 mins in presence of BETP by PathHunter assay relative to control; type: functional, cell-based
[34] = biological target: T1, Glucagon-like peptide 1 receptor; remark: listed apart in the source
[35] = biological target: T1, Glucagon-like peptide 1 receptor; remark: listed apart in the source
[36] = biological target: T1, Glucagon-like peptide 1 receptor; experiment: biochemical
[37] = biological target: T1, Glucagon-like peptide 1 receptor; remark: listed apart in the source

Chain of Voltage-gated inwardly rectifying potassium channel KCNH2 (Q12809 whole entry): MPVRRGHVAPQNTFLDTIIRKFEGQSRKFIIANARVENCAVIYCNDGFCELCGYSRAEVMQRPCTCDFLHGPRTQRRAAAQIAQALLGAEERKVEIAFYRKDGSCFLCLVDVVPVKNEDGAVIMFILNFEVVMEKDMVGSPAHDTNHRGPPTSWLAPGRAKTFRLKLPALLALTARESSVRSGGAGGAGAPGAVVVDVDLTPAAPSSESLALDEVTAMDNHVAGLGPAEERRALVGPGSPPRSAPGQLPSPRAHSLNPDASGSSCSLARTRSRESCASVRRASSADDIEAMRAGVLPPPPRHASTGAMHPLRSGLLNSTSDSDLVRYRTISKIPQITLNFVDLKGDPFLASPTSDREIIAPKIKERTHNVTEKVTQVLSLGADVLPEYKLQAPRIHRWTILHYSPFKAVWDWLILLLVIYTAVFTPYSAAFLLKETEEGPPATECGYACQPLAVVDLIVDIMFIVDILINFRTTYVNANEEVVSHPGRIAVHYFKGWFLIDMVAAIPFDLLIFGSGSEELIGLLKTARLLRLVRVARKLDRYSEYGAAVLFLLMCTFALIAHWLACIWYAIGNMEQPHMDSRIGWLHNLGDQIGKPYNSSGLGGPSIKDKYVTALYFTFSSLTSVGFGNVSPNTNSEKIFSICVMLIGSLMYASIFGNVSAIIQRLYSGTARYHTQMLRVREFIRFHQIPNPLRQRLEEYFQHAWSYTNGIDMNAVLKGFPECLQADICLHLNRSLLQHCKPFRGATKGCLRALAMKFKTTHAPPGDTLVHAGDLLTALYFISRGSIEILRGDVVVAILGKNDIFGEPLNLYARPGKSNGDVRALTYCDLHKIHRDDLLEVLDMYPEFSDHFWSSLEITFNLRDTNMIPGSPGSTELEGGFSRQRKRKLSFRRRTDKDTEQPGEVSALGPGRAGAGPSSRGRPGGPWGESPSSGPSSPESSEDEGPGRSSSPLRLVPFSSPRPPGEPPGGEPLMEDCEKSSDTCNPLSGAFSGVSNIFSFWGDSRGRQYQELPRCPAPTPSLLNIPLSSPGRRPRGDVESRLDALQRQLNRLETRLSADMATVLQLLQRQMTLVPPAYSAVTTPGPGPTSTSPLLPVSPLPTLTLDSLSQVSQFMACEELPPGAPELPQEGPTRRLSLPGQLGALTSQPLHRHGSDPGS
T1 sequence (P43220 whole entry): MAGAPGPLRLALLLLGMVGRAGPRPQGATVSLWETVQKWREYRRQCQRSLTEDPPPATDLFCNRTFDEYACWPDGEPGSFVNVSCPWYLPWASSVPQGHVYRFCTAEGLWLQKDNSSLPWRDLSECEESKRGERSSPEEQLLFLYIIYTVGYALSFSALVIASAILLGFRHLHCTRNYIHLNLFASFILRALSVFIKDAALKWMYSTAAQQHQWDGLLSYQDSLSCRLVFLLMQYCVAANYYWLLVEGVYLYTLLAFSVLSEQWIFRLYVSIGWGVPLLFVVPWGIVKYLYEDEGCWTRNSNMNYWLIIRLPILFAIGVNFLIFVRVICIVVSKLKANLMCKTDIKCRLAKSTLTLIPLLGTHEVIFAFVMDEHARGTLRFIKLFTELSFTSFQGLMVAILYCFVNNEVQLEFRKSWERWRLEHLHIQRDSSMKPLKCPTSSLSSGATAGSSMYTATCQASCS

With N#Cc1ccc(COc2cccc(C3CCN(Cc4nc5ccc(C(=O)O)cc5n4C[C@@H]4CCO4)CC3)n2)c(F)c1 [DANUGLIPRON] as the compound, how does the Activity [1] read?
Its Activity is “Active”.

And the AUC [2]?
The AUC was 303 ng·h/mL.

And the Cmax [3]?
The Cmax was 2820 ng/mL.

And the Activity [4]?
Its Activity is “Active”.

And the bioavailability [5]?
Its bioavailability is 39%.

And the Cmax [6]?
The Cmax was 1150 ng/mL.

What about the Activity [7] of the same compound?
Its Activity is “Dde”.

And the Emax [8]?
Its Emax is 110%.

And the AUC [9]?
Its AUC is 11900 ng·h/mL.

And the IC50 [10]?
The IC50 was 4.3 µM.

What about the AUC [11] of the same compound?
The AUC was 11000 ng·h/mL.

What about the Cmax [12] of the same compound?
Its Cmax is 141 ng/mL.

What about the hepatocyte CLint [13] of the same compound?
Its hepatocyte CLint is 6.9 µL/min/1e6 cells.

And the EC50 [14]?
The EC50 was > 20 µM.

And the bioavailability [15]?
The bioavailability was 5%.

And the AUC [16]?
Its AUC is 168 ng·h/mL.

What about the Activity [17] of the same compound?
Its Activity is “Active”.

And the AUC [18]?
The AUC was 296 ng·h/mL.

What about the Vdss [19] of the same compound?
Its Vdss is 0.86 L/kg.

What about the bioavailability [20] of the same compound?
Its bioavailability is 11%.

What about the bioavailability [21] of the same compound?
Its bioavailability is 9%.

What about the Activity [22] of the same compound?
The Activity was “Active”.

And the Cmax [23]?
The Cmax was 68.7 ng/mL.

And the CLH [24]?
The CLH was < 10 µL/min.

What about the AUC [25] of the same compound?
Its AUC is 1240 ng·h/mL.

What about the logD [26] of the same compound?
Its logD is 1.8.

What about the Vdss [27] of the same compound?
The Vdss was 0.266 L/kg.

For Cn1c(CN2CCC(c3cccc(OCc4ccc(Cl)cc4F)n3)CC2)nc2ccncc21, which EC50 [28] is on record?
The EC50 was > 30 µM.

And the EC50 [29]?
The EC50 was 0.077 µM.

And the EC50 [30]?
Its EC50 is 9.6 µM.

What about the EC50 [31] of the same compound?
Its EC50 is 2.6 µM.

What about the Emax [8] of the same compound?
The Emax was 86%.

What about the IC50 [10] of the same compound?
Its IC50 is 5.6 µM.

And the hepatocyte CLint [13]?
The hepatocyte CLint was 55 µL/min/1e6 cells.

What about the logD [32] of the same compound?
Its logD is 5.7.

What about the Emax ([33]; filed as agonist) of the same compound?
Its Emax is 100%.

What about the EC50 [34] of the same compound?
Its EC50 is > 20 µM.

Which results are given for Cn1c(CN2CCC(c3cccc(OCc4ccc(Cl)cc4F)n3)CC2)nc2nccc(NCC(=O)O)c21?
EC50 [28]: > 30 µM; EC50 [29]: 0.044 µM; EC50 [30]: 1.5 µM; EC50 [31]: 4.6 µM; Emax [8]: 90%; IC50 [10]: > 10 µM; hepatocyte CLint [13]: 37 µL/min/1e6 cells; Emax [33]: 23%; EC50 [34]: > 20 µM; logD [26]: 2.3

With CCn1cncc1Cn1c(CN2CCC(c3cccc(OCc4ccc(F)cc4F)n3)CC2)nc2ccc(C(=O)O)cc21 as the compound, how does the EC50 [31] read?
The EC50 was 0.00075 µM.

What about the EC50 [35] of the same compound?
The EC50 was 0.25 µM.

And the EC50 [34]?
The EC50 was 0.0086 µM.

And the Ki [36]?
The Ki was 0.051 µM.

What about the EC50 [37] of the same compound?
The EC50 was 0.61 µM.

With Cn1c(CN2CCC(c3nc(OCc4ccc(Cl)cc4F)ncc3F)CC2)nc2ccccc21 as the compound, how does the EC50 [29] read?
The EC50 was > 9.9 µM.

What about the EC50 [31] of the same compound?
The EC50 was > 20 µM.

And the IC50 [10]?
Its IC50 is 5.4 µM.

And the hepatocyte CLint [13]?
The hepatocyte CLint was 48 µL/min/1e6 cells.

What about the logD [32] of the same compound?
Its logD is 5.6.

And the EC50 [34]?
The EC50 was > 20 µM.

What does the source list for Cn1c(CN2CCC(c3cccc(OCc4ccc(Cl)cc4F)n3)CC2)nc2ccc(C(=O)O)nc21?
EC50 [28]: > 30 µM; EC50 [29]: 0.0067 µM; EC50 [30]: 2.8 µM; EC50 [31]: 0.095 µM; Emax [8]: 84%; IC50 [10]: > 100 µM; hepatocyte CLint [13]: 31 µL/min/1e6 cells; Emax ([33]; filed as agonist): 99%; EC50 [34]: 2.1 µM; logD [26]: 2
